This note sets out measurements from article PMC10108347, “Heterobifunctional Ligase Recruiters Enable pan-Degradation of Inhibitor of Apoptosis Proteins” (Journal of Medicinal Chemistry, 2023).

Molecules are shown by their SMILES. Where two headings read alike, the source gives them in different places.

The target of one data set is VHL30 (Homo sapiens, UniProt P40337). Description: Immunoblotting (western blot) quantification of VHL30 levels in MM.1S cells. As to conditions: for remaining activity at 0.1 µM: MM1.S. Background: Immunoblotting shows a protein as a band on a membrane.
Sequence of VHL30 (P40337 whole entry): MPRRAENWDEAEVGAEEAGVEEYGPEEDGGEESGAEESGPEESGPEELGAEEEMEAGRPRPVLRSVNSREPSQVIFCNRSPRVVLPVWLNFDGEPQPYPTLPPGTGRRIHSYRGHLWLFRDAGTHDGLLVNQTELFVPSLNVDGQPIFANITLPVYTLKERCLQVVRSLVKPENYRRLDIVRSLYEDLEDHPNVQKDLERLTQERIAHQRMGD
The next data set deals with XIAP (Homo sapiens, UniProt P98170). In words: Immunoblotting (western blot) quantification of XIAP levels in MM.1S cells. The following applies: MM1.S, 16 h.
Sequence of XIAP (P98170 whole entry): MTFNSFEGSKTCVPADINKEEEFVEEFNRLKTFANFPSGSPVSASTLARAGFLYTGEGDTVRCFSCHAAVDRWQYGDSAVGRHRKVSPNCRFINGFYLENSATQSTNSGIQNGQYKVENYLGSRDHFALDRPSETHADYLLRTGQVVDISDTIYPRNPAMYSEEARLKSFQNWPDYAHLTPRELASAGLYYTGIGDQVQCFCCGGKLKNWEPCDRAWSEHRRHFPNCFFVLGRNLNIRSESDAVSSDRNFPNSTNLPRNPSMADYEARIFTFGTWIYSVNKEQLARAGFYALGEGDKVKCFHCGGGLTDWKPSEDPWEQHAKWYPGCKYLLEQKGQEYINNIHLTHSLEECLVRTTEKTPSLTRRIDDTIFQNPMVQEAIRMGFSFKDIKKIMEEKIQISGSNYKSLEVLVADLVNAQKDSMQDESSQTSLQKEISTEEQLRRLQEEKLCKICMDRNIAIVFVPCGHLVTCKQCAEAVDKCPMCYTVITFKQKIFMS
The next data set has as its target cIAP1 (Homo sapiens, UniProt Q13490). Description: Immunoblotting (western blot) quantification of cIAP1 levels in MM.1S cells. As to conditions: MM1.S, 16 h.
The next data set concerns the target cIAP2 (Homo sapiens, UniProt Q13489). In words: Immunoblotting (western blot) quantification of cIAP2 levels in MM.1S cells. As to conditions: MM1.S, 16 h.
Data set [1] has as its system IAPs (cIAP1, cIAP2, XIAP). In words: Immunoblotting of IAPs in MM.1S cells, overall degradation profile, time course and washout. The format is cell-based. As to conditions: 16 h, western blot, concentration (10 nM to 1 μM). As for the experimental part:
Next, we examined the persistence of IAP degradation in MM.1S cells after a single exposure to 1 μM of 9 and subsequent removal of the compound. […] The reliance on CRL2^VHL was assessed with a neddylation inhibitor MLN4924, which blocks the activity of CRLs (Figure S13A).

A short description of data set [2]: Log D7.4 measurement by chromatographic (fast-gradient HPLC) method. The following applies: pH 7.4.
Method: The system was calibrated by plotting the retention times of six different drugs (atenolol, metoprolol, labetalol, diltiazem, triphenylene, and permethrin) versus their literature-known log D7.4 in a calibration line (R^2 = 0.99). Subsequently, the mean retention times of the analytes were taken to calculate their log D7.4 values with the aid of the calibration line. At least two independent measurements of each analyte were performed.
[3] abbreviates: read-out: %remaining protein XIAP, MM.1S cells, 16 h treatment at 0.1 μM, normalized to loading control and DMSO.
The mark [4] stands for this setting: read-out: %remaining protein cIAP1, MM.1S cells, 16 h treatment at 0.1 μM, normalized to loading control and DMSO.
[5] abbreviates: read-out: %remaining protein cIAP2, MM.1S cells, 16 h treatment at 0.1 μM, normalized to loading control and DMSO.
Where [6] appears, read: 16 h, read-out: %remaining protein VHL30, MM.1S cells, 16 h treatment at 0.1 μM, normalized to loading control and DMSO.
Setting [7] is: read-out: %remaining protein XIAP.
Where [8] appears, read: read-out: %remaining protein cIAP1.
[9] abbreviates: read-out: %remaining protein cIAP2.
[10] abbreviates: 16 h, read-out: %remaining protein VHL30.

Sequence of cIAP1 (Q13490 whole entry): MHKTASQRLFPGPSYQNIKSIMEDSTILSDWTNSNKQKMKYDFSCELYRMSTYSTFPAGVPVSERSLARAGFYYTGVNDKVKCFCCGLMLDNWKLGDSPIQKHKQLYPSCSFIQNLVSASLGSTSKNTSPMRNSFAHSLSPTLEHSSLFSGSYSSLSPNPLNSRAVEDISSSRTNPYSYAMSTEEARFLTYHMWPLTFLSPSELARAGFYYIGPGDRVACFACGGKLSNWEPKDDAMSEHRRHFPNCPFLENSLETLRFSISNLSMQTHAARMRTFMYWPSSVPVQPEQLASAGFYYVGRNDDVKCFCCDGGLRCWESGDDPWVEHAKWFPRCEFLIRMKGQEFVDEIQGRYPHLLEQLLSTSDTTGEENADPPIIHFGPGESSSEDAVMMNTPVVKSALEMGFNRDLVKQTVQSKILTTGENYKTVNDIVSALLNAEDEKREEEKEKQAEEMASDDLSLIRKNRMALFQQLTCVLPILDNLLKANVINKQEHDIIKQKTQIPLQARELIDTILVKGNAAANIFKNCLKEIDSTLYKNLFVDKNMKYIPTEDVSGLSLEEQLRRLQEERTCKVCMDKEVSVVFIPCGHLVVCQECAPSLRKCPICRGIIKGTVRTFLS
Sequence of cIAP2 (Q13489 whole entry): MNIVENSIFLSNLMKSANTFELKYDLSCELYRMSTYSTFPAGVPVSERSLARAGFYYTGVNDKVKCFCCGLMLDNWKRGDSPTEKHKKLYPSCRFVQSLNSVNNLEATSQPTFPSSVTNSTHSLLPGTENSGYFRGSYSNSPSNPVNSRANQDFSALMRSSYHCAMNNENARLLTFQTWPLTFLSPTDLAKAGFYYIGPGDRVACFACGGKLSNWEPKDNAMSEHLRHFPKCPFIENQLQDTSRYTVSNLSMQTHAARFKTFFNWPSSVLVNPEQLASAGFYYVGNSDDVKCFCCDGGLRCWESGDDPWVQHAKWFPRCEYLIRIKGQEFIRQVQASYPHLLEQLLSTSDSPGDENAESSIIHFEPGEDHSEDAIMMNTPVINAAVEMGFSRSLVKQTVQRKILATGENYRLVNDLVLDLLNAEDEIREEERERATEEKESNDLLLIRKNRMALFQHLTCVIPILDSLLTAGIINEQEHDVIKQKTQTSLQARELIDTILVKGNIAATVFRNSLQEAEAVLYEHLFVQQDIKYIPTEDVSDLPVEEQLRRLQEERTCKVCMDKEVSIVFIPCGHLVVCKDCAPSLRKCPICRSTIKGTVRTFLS

Consider `Cc1ncsc1-c1ccc(CNC(=O)[C@@H]2C[C@@H](O)CN2C(=O)[C@@H](NC(=O)COCCOCCOCCOCCOCCOCC(=O)N[C@H](C(=O)N2C[C@H](O)C[C@H]2C(=O)NCc2ccc(-c3scnc3C)cc2)C(C)(C)C)C(C)(C)C)cc1` [CM11, reference compound], for which the “VHL30 degradation (in words)” value on VHL30 (MM.1S cells, western blot) is “strong and dose-dependent VHL30 degradation”.

As to `CN[C@@H](C)C(=O)N[C@H](C(=O)N1C[C@@H](Oc2cccc(OCCCCOCCCC(=O)N[C@H](C(=O)N3C[C@H](O)C[C@H]3C(=O)NCc3ccc(-c4scnc4C)cc3)C(C)(C)C)c2)C[C@H]1C(=O)N[C@@H]1CCCc2ccccc21)C1CCCCC1` [PROTAC 3, (2S,4S)-1-((S)-2-Cyclohexyl-2-((S)-2-(methylamino)propanamido)acetyl)-4-(3-(4-(4-(((S)-1-((2S,4R)-4-hydroxy-2-((4-(4-methylthiazol-5-yl)benzyl)carbamoyl)pyrrolidin-1-yl)-3,3-dimethyl-1-oxobutan-2-yl)amino)-4-oxobutoxy)butoxy)phenoxy)-N-((R)-1,2,3,4-tetrahydronaphthalen-1-yl)pyrrolidine-2-carboxamide], the remaining activity at 0.1 µM at XIAP (setting [3]) amounted to 4%; at cIAP1 (setting [4]), 3%; at cIAP2 (setting [5]) it was 30%; at VHL30 (setting [6]), 29%. The compound further showed a VHL30 protein degradation at VHL30 (MM.1S cells, 16 h, 0.1 μM, quantified by western blot) of 71%.

Consider `CN[C@@H](C)C(=O)N[C@H](C(=O)N1C[C@@H](Oc2cccc(OCCOCCOCCOCC(=O)N[C@H](C(=O)N3C[C@H](O)C[C@H]3C(=O)NCc3ccc(-c4scnc4C)cc3)C(C)(C)C)c2)C[C@H]1C(=O)N[C@@H]1CCCc2ccccc21)C1CCCCC1` [PROTAC 5, (2S,4R)-1-((S)-2-(tert-Butyl)-14-(3-(((3S,5S)-1-((S)-2-cyclohexyl-2-((S)-2-(methylamino)propanamido)acetyl)-5-(((R)-1,2,3,4-tetrahydronaphthalen-1-yl)carbamoyl)pyrrolidin-3-yl)oxy)phenoxy)-4-oxo-6,9,12-trioxa-3-azatetradecanoyl)-4-hydroxy-N-(4-(4-methylthiazol-5-yl)benzyl)pyrrolidine-2-carboxamide], for which the remaining activity at 0.1 µM on XIAP (setting [3]) was 2%; on cIAP1 (setting [4]), 2%; on cIAP2 (setting [5]) it was 37%; at VHL30 (setting [6]) it was 37%.

Regarding `CN[C@@H](C)C(=O)N[C@H](C(=O)N1C[C@@H](Oc2cccc(OCCCCCCOCCCCCOCCCCC(=O)N[C@H](C(=O)N3C[C@H](O)C[C@H]3C(=O)NCc3ccc(-c4scnc4C)cc3)C(C)(C)C)c2)C[C@H]1C(=O)N[C@@H]1CCCc2ccccc21)C1CCCCC1` [PROTAC 7, (2S,4S)-1-((S)-2-Cyclohexyl-2-((S)-2-(methylamino)propanamido)acetyl)-4-(3-((6-((5-((5-(((S)-1-((2S,4R)-4-hydroxy-2-((4-(4-methylthiazol-5-yl)benzyl)carbamoyl)pyrrolidin-1-yl)-3,3-dimethyl-1-oxobutan-2-yl)amino)-5-oxopentyl)oxy)pentyl)oxy)hexyl)oxy)phenoxy)-N-((R)-1,2,3,4-tetrahydronaphthalen-1-yl)pyrrolidine-2-carboxamide], the remaining activity at 0.1 µM on XIAP (setting [7]) stood at 3%; at cIAP1 (setting [8]), 2%; on cIAP2 (setting [9]), 32%; at VHL30 (setting [10]), 83%.

As for `CN[C@@H](C)C(=O)N[C@H](C(=O)N1C[C@@H](Oc2cccc(OCCCCCCOCCCCCCOCCCCCC(=O)N[C@H](C(=O)N3C[C@H](O)C[C@H]3C(=O)NCc3ccc(-c4scnc4C)cc3)C(C)(C)C)c2)C[C@H]1C(=O)N[C@@H]1CCCc2ccccc21)C1CCCCC1` [PROTAC 8, (2S,4S)-1-((S)-2-Cyclohexyl-2-((S)-2-(methylamino)propanamido)acetyl)-4-(3-((6-((6-((6-(((S)-1-((2S,4R)-4-hydroxy-2-((4-(4-methylthiazol-5-yl)benzyl)carbamoyl)pyrrolidin-1-yl)-3,3-dimethyl-1-oxobutan-2-yl)amino)-6-oxohexyl)oxy)hexyl)oxy)hexyl)oxy)phenoxy)-N-((R)-1,2,3,4-tetrahydronaphthalen-1-yl)pyrrolidine-2-carboxamide], the remaining activity at 0.1 µM at XIAP (setting [3]) turned out to be 4%; on cIAP1 (setting [4]), 3%; at cIAP2 (setting [5]), 36%; at VHL30 (setting [6]), 95%.

`CN[C@H](C)C(=O)N[C@H](C(=O)N1C[C@@H](Oc2cccc(OCCCCC(=O)N[C@H](C(=O)N3C[C@H](O)C[C@H]3C(=O)N[C@@H](C)c3ccc(-c4scnc4C)cc3)C(C)(C)C)c2)C[C@H]1C(=O)N[C@@H]1CCCc2ccccc21)C1CCCCC1` [PROTAC 10a, (2S,4S)-1-((S)-2-Cyclohexyl-2-((R)-2-(methylamino)propanamido)acetyl)-4-(3-((5-(((S)-1-((2S,4R)-4-hydroxy-2-(((S)-1-(4-(4-methylthiazol-5-yl)phenyl)ethyl)carbamoyl)pyrrolidin-1-yl)-3,3-dimethyl-1-oxobutan-2-yl)amino)-5-oxopentyl)oxy)phenoxy)-N-((R)-1,2,3,4-tetrahydronaphthalen-1-yl)pyrrolidine-2-carboxamide]: the remaining activity at 0.1 µM came out at 8% at XIAP (setting [3]), 6% on cIAP1 (setting [4]), 37% on cIAP2 (setting [5]) and 41% at VHL30 (setting [6]). Further, in data set [1], the “IAP degradation profile (in words)” value is “pan-IAP”.

Take `Cc1ncsc1-c1ccc([C@H](C)NC(=O)[C@@H]2C[C@@H](O)CN2C(=O)[C@@H](NC(=O)CCCCOc2cccc(O[C@H]3C[C@@H](C(=O)N[C@@H]4CCCc5ccccc54)N(C(=O)[C@@H](NC(=O)[C@H](C)N(C)C)C4CCCCC4)C3)c2)C(C)(C)C)cc1` [PROTAC 10b, (2S,4S)-1-((S)-2-Cyclohexyl-2-((S)-2-(dimethylamino)propanamido)acetyl)-4-(3-((5-(((S)-1-((2S,4R)-4-hydroxy-2-(((S)-1-(4-(4-methylthiazol-5-yl)phenyl)ethyl)carbamoyl)pyrrolidin-1-yl)-3,3-dimethyl-1-oxobutan-2-yl)amino)-5-oxopentyl)oxy)phenoxy)-N-((R)-1,2,3,4-tetrahydronaphthalen-1-yl)pyrrolidine-2-carboxamide]: the remaining activity at 0.1 µM is 66% at XIAP (setting [3]), 2% on cIAP1 (setting [4]), 27% at cIAP2 (setting [5]) and 63% at VHL30 (setting [6]). In addition, the “IAP degradation profile (in words)” value in data set [1] is “cIAP1 and cIAP2 degradation”.

With `CN[C@@H](C)C(=O)N[C@H](C(=O)N1C[C@@H](Oc2cccc(OCCCCCCOCCCCCOCCCCCOc3cc(-c4scnc4C)ccc3CNC(=O)[C@@H]3C[C@@H](O)CN3C(=O)[C@H](C(C)C)N3Cc4ccccc4C3=O)c2)C[C@H]1C(=O)N[C@@H]1CCCc2ccccc21)C1CCCCC1` [PROTAC 18, (2S,4S)-1-((S)-2-Cyclohexyl-2-((S)-2-(methylamino)propanamido)acetyl)-4-(3-((6-((5-((5-(2-(((2S,4R)-4-hydroxy-1-((S)-3-methyl-2-(1-oxoisoindolin-2-yl)butanoyl)pyrrolidine-2-carboxamido)methyl)-5-(4-methylthiazol-5-yl)phenoxy)pentyl)oxy)pentyl)oxy)hexyl)oxy)phenoxy)-N-((R)-1,2,3,4-tetrahydronaphthalen-1-yl)pyrrolidine-2-carboxamide], the chromatographic logD (commonly a lipophilicity value derived from retention on a column) in data set [2] was 5.6. The remaining activity at 0.1 µM on XIAP (setting [7]) worked out at 6%; on cIAP1 (setting [8]) it was 5%; on cIAP2 (setting [9]) it was 37%; on VHL30 (setting [10]) it was 88%.

In the case of `CN[C@@H](C)C(=O)N[C@H](C(=O)N1C[C@@H](Oc2cccc(OCCCCCCOCCCCCCOCCCCCCNc3cccc4c3C(=O)N(C3CCC(=O)N(C)C3=O)C4=O)c2)C[C@H]1C(=O)N[C@@H]1CCCc2ccccc21)C1CCCCC1` (stereo partly drawn) [PROTAC 29, (2S,4S)-1-((S)-2-Cyclohexyl-2-((S)-2-(methylamino)propanamido)acetyl)-4-(3-((6-((6-((6-((2-(1-methyl-2,6-dioxopiperidin-3-yl)-1,3-dioxoisoindolin-4-yl)amino)hexyl)oxy)hexyl)oxy)hexyl)oxy)phenoxy)-N-((R)-1,2,3,4-tetrahydronaphthalen-1-yl)pyrrolidine-2-carboxamide], the chromatographic logD in data set [2] amounted to 7.4.
